The results in this text go back to patent US10322097B2, “Treatment of subjects with multidrug-resistant cancer” (priority 2015, dated 2019).

Molecules are shown by their SMILES.

The subject of assay [1] is HEK293/ABCB5 kidney cells. As to the kind of experiment: MTT cytotoxicity assay, HEK293/ABCB5. It is filed as cell-based. On the procedure: (§1) Cell cultures and cytotoxicity assays have been used. Celastrol was dissolved in DMSO at a final concentration of 100 mmol/L and stored at −20° C. Cytotoxicity was assessed using the 3-(4,5-dimethylthiazol-2-yl)-2,5-diphenyltetrazolium bromide assay. 4000 cells from HEK293 and HEK293/ABCB5 kidney cancer cells or MDA-MB-231 pcDNA and MDA-MB-231/BCRP breast cancer cells were seeded on 96-well plates per well. After overnight pre-incubation, the cells were exposed to different concentrations of celastrol (0.1-10 μmol/L) for 3 days. Subsequently, 10 μL of MTT reagents were added to each well and incubated at 37° C. for 4 hours followed by the addition of 100 μL solubilization buffer (10% SDS in 0.01 mol/L HCl) and overnight incubation. Absorbance at 585 nm was determined from each well the next day. The percentage of cell viability was calculated using the following formula: Cell viability (%)=Cells number treated/Cells number DMSO control×100. Data were obtained from three independent experiments.

Assay [2] has as its system A2780 (Ovary) cisplatin sensitive cancer cells. As to the kind of experiment: MTT cytotoxicity assay, A2780 cisplatin sensitive. In kind it is cell-based, human. Particulars: Homo sapiens, A2780, 72 h, read-out: IC50 A2780 (Ovary) (Cisplatin sensitive). As for the experimental part: as §1, with “A2780 cisplatin sensitive/resistant ovarian” for “HEK293 and HEK293/ABCB5 kidney”, “SGC-7901 cisplatin sensitive/resistant gastric” for “MDA-MB-231 pcDNA and MDA-MB-231/BCRP breast”, “(0.039-100” for “(0.1-10”, “μmol/L) or cisplatin” for “μmol/L)”

For assay [3], the system named is A2780 (Ovary) taxol resistant cancer cells. As to the kind of experiment: MTT cytotoxicity assay, A2780 taxol resistant. In kind it is cell-based, human. Particulars: for Resistant Factor: A2780 taxol resistant versus taxol sensitive. As for the experimental part:
as §1, with “from A549 (lung), A2780 (ovary), HCT-8 (colon)” for “from HEK293”, “and MCF-7 (breast)” for “and HEK293/ABCB5 kidney cancer cells or MDA-MB-231 pcDNA and MDA-MB-231/BCRP breast”, “celastrol (0.039-100” for “celastrol (0.1-10”, “μmol/L) or taxol” for “μmol/L)”, “reagents was” for “reagents were”
A general note: Formazan colour is commonly taken as a measure of viable cells.

For assay [4], the system named is MCF-7 (Breast) doxorubicin sensitive cancer cells. As to the kind of experiment: MTT cytotoxicity assay, MCF-7 doxorubicin sensitive. In kind it is cell-based. Particulars: Homo sapiens, MCF7, 72 h, read-out: IC50 MCF-7 (Breast) (Doxorubicin sensitive). On the procedure: as §1, with “MCF-7 doxorubicin sensitive/resistant breast” for “HEK293 and HEK293/ABCB5 kidney”, “CEM doxorubicin sensitive/resistant leukemia” for “MDA-MB-231 pcDNA and MDA-MB-231/BCRP breast cancer”, “(0.039-100” for “(0.1-10”, “μmol/L) or doxorubicin” for “μmol/L)”

Assay [5] relates to HCT-8 (Colon) taxol resistant cancer cells. As to the kind of experiment: MTT cytotoxicity assay, HCT-8 taxol resistant. It is filed as cell-based, human. As for the experimental part: as §1, with “from A549 (lung), A2780 (ovary), HCT-8 (colon)” for “from HEK293”, “and MCF-7 (breast)” for “and HEK293/ABCB5 kidney cancer cells or MDA-MB-231 pcDNA and MDA-MB-231/BCRP breast”, “celastrol (0.039-100” for “celastrol (0.1-10”, “μmol/L) or taxol” for “μmol/L)”, “reagents was” for “reagents were”

For assay [6], the system named is CEM-ADR5000 (Leukemia) doxorubicin resistant cells. As to the kind of experiment: MTT cytotoxicity assay, CEM-ADR5000. In kind it is cell-based, human. On the procedure: as §1, with “MCF-7 doxorubicin sensitive/resistant breast” for “HEK293 and HEK293/ABCB5 kidney”, “CEM doxorubicin sensitive/resistant leukemia” for “MDA-MB-231 pcDNA and MDA-MB-231/BCRP breast cancer”, “(0.039-100” for “(0.1-10”, “μmol/L) or doxorubicin” for “μmol/L)”

Assay [7] deals with CCRF-CEM (Leukemia) doxorubicin sensitive cells. As to the kind of experiment: MTT cytotoxicity assay, CCRF-CEM. It is filed as cell-based. Particulars: Homo sapiens, 72 h, 3 days. As for the experimental part: as §1, with “MCF-7 doxorubicin sensitive/resistant breast” for “HEK293 and HEK293/ABCB5 kidney”, “CEM doxorubicin sensitive/resistant leukemia” for “MDA-MB-231 pcDNA and MDA-MB-231/BCRP breast cancer”, “(0.039-100” for “(0.1-10”, “μmol/L) or doxorubicin” for “μmol/L)”

The subject of assay [8] is DLD-1 Bax-Bak-/- colon cancer cells. As to the kind of experiment: MTT cytotoxicity assay, DLD-1 Bax-Bak-/-. It is filed as cell-based. As for the experimental part:
(§2) Cell cultures and cytotoxicity assays have been used. Celastrol was dissolved in DMSO at a final concentration of 100 mmol/L and stored at −20° C. Cytotoxicity was assessed using the 3-(4,5-dimethylthiazol-2-yl)-2,5-diphenyltetrazolium bromide assay. 4000 cells from HCT116 p53^+/+ or p53^−/− colon cancer cells and DLD-1 Bax-Bak^+/+ or Bax-Bak^−/− colon cancer cells were seeded on 96-well plates per well. […] Subsequently, 10 μL of MTT reagents were added to each well and incubated at 37° C. for 4 hours followed by the addition of 100 μL solubilization buffer (10% SDS in 0.01 mol/L HCl) and overnight incubation. […] The percentage of cell viability was calculated using the following formula: Cell viability (%)=Cells number treated/Cells number DMSO control×100. Data were obtained from three independent experiments.

For assay [9], the system named is HCT-8 (Colon) taxol sensitive cancer cells. As to the kind of experiment: MTT cytotoxicity assay, HCT-8 taxol sensitive. It is filed as cell-based. The settings on record: Homo sapiens, HCT-8, 72 h, read-out: IC50 HCT-8 (Colon) (Taxol sensitive). As for the experimental part:
as §1, with “from A549 (lung), A2780 (ovary), HCT-8 (colon)” for “from HEK293”, “and MCF-7 (breast)” for “and HEK293/ABCB5 kidney cancer cells or MDA-MB-231 pcDNA and MDA-MB-231/BCRP breast”, “celastrol (0.039-100” for “celastrol (0.1-10”, “μmol/L) or taxol” for “μmol/L)”, “reagents was” for “reagents were”

Assay [10] relates to MDA-MB-231 pcDNA breast cancer cells. As to the kind of experiment: MTT cytotoxicity assay, MDA-MB-231 pcDNA. The settings on record: Homo sapiens, MDA-MB-231, 72 h, 3 days. In kind it is cell-based. On the procedure: as §1
Assay [11] relates to HCT116 p53+/+ colon cancer cells. As to the kind of experiment: MTT cytotoxicity assay, HCT116 p53+/+. It is filed as cell-based. Particulars: Homo sapiens, HCT-116, 72 h, read-out: IC50 HCT116 p53+/+ colon cancer cells. On the procedure:
as §2

For `CC1=C(O)C(=O)C=C2C1=CC=C1[C@@]2(C)CC[C@@]2(C)[C@@H]3C[C@](C)(C(=O)O)CC[C@]3(C)CC[C@]12C` [Celastrol, celastrol], the IC50 in assay [1] (Homo sapiens, HEK293, 72 h, MTT, 3 days) was determined as 3450 nM; in assay [2], 525 nM; in assay [3] (Homo sapiens, A2780, 72 h, read-out: IC50 A2780 (Ovary) (Taxol resistant)), 540 nM; in assay [4] it was 1130 nM; in [5] (Homo sapiens, HCT-8, 72 h, read-out: IC50 HCT-8 (Colon) (Taxol resistant)) it was 553 nM; in [6] (Homo sapiens, 72 h, MTT, 3 days) it was 108 nM. Further, the IC50 in assay [7] worked out at 3260 nM; in assay [8] (Homo sapiens, DLD-1, 72 h, read-out: IC50 DLD-1 Bax-Bak-/- colon cancer cells), 184 nM; in assay [9], 937 nM; in assay [10], 4830 nM; in assay [11], 831 nM. Besides, the “Resistant Factor” value in assay [1] (IC50 HEK293/ABCB5 divided by IC50 HEK293) worked out at 1.12; in assay [3] it was 0.60; in [3] (listed as celastrol), 0.6; in [5] (HCT-8 taxol resistant versus taxol sensitive), 0.59; in assay [6] (CEM-ADR5000 versus CCRF-CEM), 0.033; in assay [8] (IC50 DLD-1 Bax-Bak-/- divided by IC50 DLD-1 Bax-Bak+/+), 0.32.
